Test results published in patent publication US20100286226A1, “COMBINATION THERAPY RELATED TO SEROTONIN DUAL ACTION COMPOUNDS” (H. LUNDBECK A/S, priority 2007, published 2010).

What was measured:
[1] = test system: dorsal raphe 5-HT neurons; experiment: Inhibitory effect on the firing activity of dorsal raphe 5-HT neurons (extracellular unitary recordings, anesthetized rats); assay type: in vivo, rat
Method: The experiments were carried out in male Sprague-Dawley rats (Harlan, Gannat, FRANCE) weighing 250 to 300 g at the day of the experiment and which have been kept under standard laboratory conditions (12:12 light-dark cycle with free access to food and water). The animals were anesthetized with chloral hydrate (400 mg/kg, i.p.). Supplemental doses were given to maintain constant anesthesia and to prevent any nociceptive reaction to a tail pinch.
Extracellular unitary recordings of dorsal raphe 5-HT neurons were performed with single-barreled glass micropipettes preloaded with fiberglass filaments in order to facilitate filling. The tip was broken back to 2 to 4 μm and filled with a 2M NaCl solution saturated with Blue Chicago dye. The rats (control or treated) were placed in a stereotaxic frame and a burr hole was drilled on the midline 1 mm anterior to lambda. Dorsal raphe 5-HT neurons were encountered over a distance of 1 mm starting immediately below the ventral border of the Sylvius aqueduct. These neurons were identified using the criteria of Aghajanian (Aghajanian, G. K., Essays Neurochem Neuropharmacol 2000, 3: 1-32): a slow (0.5-2.5 Hz) and regular firing rate and long-duration (0.8-1.2 ms) positive action potentials.
To determine putative synergistic effect of Compound II (2-(6-Fluoro-1H-indol-3-ylsulfanyl)-benzyl]-methyl-amine) on the inhibitory action of 5-HTP (25 mg/kg, i.v.) on the firing activity of dorsal raphe 5-HT neurons, a dose of Compound II corresponding to 20-30% of inhibition, was injected prior to and after the administration of 5-HTP.
Statistical analysis was performed with SigmaStat for Window version 4.0 software (Jandel Corporation). Average was the mean±SEM. Significance was considered for p<0.05.

[2] = molecular target: norepinephrine transporter (NET) (Homo sapiens, UniProt P23975); experiment: In vitro reuptake inhibitory potency at the norepinephrine transporter; assay type: biochemical
Chain of norepinephrine transporter (NET) (P23975 whole entry, species assumed): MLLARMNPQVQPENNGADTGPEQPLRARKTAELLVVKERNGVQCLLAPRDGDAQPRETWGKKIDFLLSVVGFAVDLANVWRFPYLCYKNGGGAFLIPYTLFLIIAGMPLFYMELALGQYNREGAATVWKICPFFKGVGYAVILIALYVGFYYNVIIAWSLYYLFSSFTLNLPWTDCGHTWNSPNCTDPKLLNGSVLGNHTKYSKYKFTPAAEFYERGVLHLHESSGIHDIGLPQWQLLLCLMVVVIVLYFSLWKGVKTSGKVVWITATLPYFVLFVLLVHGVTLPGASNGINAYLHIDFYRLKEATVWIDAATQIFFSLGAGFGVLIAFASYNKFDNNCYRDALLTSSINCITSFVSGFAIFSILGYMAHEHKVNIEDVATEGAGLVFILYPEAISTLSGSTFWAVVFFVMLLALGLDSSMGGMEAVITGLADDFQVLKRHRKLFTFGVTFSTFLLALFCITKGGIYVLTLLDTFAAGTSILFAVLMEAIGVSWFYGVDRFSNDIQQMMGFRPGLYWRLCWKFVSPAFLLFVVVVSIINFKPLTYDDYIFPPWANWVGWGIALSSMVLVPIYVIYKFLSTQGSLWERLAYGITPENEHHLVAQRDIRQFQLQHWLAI

allosteric site of SERT = allosteric site of SERT (Homo sapiens, UniProt P31645); experiment: Dissociation binding studies (3H-escitalopram), allosteric modulation of the serotonin transporter
Chain of allosteric site of SERT (P31645 whole entry): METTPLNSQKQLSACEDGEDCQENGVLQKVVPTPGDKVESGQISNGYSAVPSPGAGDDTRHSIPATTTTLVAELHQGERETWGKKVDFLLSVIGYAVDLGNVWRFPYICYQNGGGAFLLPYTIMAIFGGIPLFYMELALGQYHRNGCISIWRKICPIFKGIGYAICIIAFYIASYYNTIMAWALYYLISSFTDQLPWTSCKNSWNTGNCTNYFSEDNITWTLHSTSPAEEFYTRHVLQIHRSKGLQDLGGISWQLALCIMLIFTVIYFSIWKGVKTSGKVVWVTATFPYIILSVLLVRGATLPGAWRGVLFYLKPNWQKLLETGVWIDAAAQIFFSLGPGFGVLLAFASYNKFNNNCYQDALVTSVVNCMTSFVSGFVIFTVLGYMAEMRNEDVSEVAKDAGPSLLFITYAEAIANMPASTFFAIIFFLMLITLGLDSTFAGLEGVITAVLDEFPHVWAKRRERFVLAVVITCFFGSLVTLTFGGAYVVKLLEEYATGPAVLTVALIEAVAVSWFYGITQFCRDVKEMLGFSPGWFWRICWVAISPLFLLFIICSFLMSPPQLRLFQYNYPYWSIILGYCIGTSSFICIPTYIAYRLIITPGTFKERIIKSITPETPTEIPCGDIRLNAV
Method: Whether a compound operates through an allosteric mechanism can be determined by in vitro dissociation experiments. Dissociation binding experiments measure the “off rate” (koff) for a radioligand of the protein. After radioligand and transporter protein are allowed to bind (i.e. form a complex), then ligand is added to block further binding of radioligand to the transporter so that the rate of dissociation can be measured. Binding (as measured by radioactivity of the radioligand:transporter complex) is measured at various times to determine the rate at which the radioligand dissociates from the transporter. Dissociation rate constants can be used to determine the half-life of the bound complex. Half-life determinations can be used to ascertain whether a compound is an allosteric modulator of the human SERT.

serotonin transporter = molecular target: T1, serotonin transporter (Rattus norvegicus, UniProt P31652); experiment: Inhibition of 3H-serotonin uptake in rat brain synaptosomes; assay type: biochemical; conditions: 3H-5-HT 10 nM, read-out: uptake inhibitory potency (IC50)
T1 construct: The P2 fraction (synaptosomal fraction) was obtained by centrifugation; from tissue; host or cells: Male Wistar rat brain (minus cerebellum), P2 synaptosomal fraction
T1 sequence (P31652 whole entry): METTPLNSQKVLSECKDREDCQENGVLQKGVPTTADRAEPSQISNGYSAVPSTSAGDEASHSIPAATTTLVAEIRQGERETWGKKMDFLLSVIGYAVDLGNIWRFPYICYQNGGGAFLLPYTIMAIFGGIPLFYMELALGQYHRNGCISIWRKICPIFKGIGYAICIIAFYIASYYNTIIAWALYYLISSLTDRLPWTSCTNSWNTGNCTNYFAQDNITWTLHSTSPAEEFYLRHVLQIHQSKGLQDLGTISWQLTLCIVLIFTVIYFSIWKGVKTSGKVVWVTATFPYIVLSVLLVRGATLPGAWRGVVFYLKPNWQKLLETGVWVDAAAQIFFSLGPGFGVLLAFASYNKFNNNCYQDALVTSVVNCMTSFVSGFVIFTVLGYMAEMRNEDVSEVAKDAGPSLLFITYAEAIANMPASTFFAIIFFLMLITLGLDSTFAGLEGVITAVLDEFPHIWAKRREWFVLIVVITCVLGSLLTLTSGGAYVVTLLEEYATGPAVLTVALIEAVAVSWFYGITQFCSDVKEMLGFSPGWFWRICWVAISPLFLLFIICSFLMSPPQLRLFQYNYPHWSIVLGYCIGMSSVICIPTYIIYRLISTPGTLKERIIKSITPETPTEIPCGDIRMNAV
Method: In order to test compounds at the primary, high-affinity binding site of the serotonin transporter, i.e. determine if a compound is a serotonin reuptake inhibitor, inhibition of the uptake of serotonin (5-HT) was determined.
By the following method, the inhibition of the uptake of ^3H-serotonin (^3H-5-HT) (10 nM) in rat brain synaptosomes by test compounds was determined in vitro. Exemplary methods, and also results of serotonin uptake for specific SRIs, is described in Hyttel, J., Psychopharmacology 1978, 60:13-18; Hyttel, J., Prog. Neuro-Psychopharmacol. & Biol. Psychait. 1982, 6:277-295; Hyttel, J. & Larsen, Acta Pharmacol. Tox. 1985, 56(suppl. 1):146-153; Sanchez, C. and Hyttel, J. European J. Pharm. […]
To 400 μl of the synaptosomal suspension (5 mg original tissue) on ice, 100 μl test compound in water was added. […] After shaking for 1 h and storage for 2 h in the dark, the content of radioactivity was determined by liquid scintillation counting (cpm). Uptake was obtained by subtracting the non-specific binding and passive transport measured in the presence of 10 μM […]. The measured cpm was plotted against test compound concentration, and the best fitting s-shaped curve was drawn. The uptake inhibitory potencies are expressed as IC50 values in nM (logarithmic means). Two full concentration-response curves were measured using five concentrations of test compound in triplicate.

ultrasonic vocalization = conditions: rat, cited from earlier work
[3] = molecular target: human serotonin transporter expressed in COS-1 cell membranes (Homo sapiens, UniProt P31645); conditions: cited from earlier work
Chain of human serotonin transporter expressed in COS-1 cell membranes (P31645 whole entry): as the sequence (P31645 whole entry) above

[4] = test system: isolation-induced aggression; conditions: mouse, with subeffective dose of L; cited from earlier work

NC(Cc1c[nH]c2ccc(O)cc12)C(=O)O (stereo not drawn) [Compound 5-HTP, 2-amino-3-(5-hydroxy-1H-indol-3-yl)-propanoic acid]
reduction of dorsal raphe 5-HT neuron firing ([1]; 5-HTP 25 mg/kg i.v. alone (first injection), six rats, mean±SEM): 13.4±2.26% | further decrease of firing ([1]; 5-HTP 25 mg/kg injected after Compound II 0.025 mg/kg, six rats): 70.53±2.76%

CNCc1ccccc1Sc1c[nH]c2cc(F)ccc12 [Compound II]
inhibitory effect at NET (in vitro reuptake inhibitory potency) [2]: exerts an inhibitory effect | further decrease of firing ([1]; Compound II 0.025 mg/kg as second injection after 5-HTP 25 mg/kg, six rats): 82.43±2.78% | inhibition at 0.025 mg/kg ([1]; Rattus norvegicus, Neuron, Compound II 0.025 mg/kg alone (first injection), six rats, mean±SEM): 24.1 ± 4.98% | effect on dissociation rate of 3H-escitalopram (allosteric site of SERT): significantly slowed | IC50 (serotonin transporter): 350 pM

CN(C)CCC[C@]1(c2ccc(F)cc2)OCc2cc(C#N)ccc21 [R-citalopram]
ultrasonic vocalization compared to controls (ultrasonic vocalization; concomitant treatment): significant increase

COc1ccccc1N1CCN(CCN(C(=O)C2CCCCC2)c2ccccn2)CC1 [WAY-100635]
effect on spontaneous firing rate of the neuron ([1]; administered after Compound II and 5-HTP): increases the spontaneous firing rate

CNCC[C@H](Oc1cccc2ccccc12)c1cccs1 [duloxetine]
stabilizing effect on radioligand:human serotonin transporter complex (dissociation from primary site) [3]: little or no stabilizing effect

CN(C)CCC[C@@]1(c2ccc(F)cc2)OCc2cc(C#N)ccc21 [escitalopram]
anxiolytic response to co-treatment with L, 5-HTP (ultrasonic vocalization; co-treatment with L, 5-HTP): markedly enhanced

Fc1ccc([C@@H]2CCNC[C@H]2COc2ccc3c(c2)OCO3)cc1 [paroxetine]
antiaggressive effect on co-administration of a subeffective dose of L, 5-HTP [4]: greatly potentiated
